{"source": "PubChem BioAssay (NCI)", "assay_in_all_cases": "NCI anticancer screen, dose series, 384-well format", "key": {"SN12C renal": {"system": "SN12C renal"}, "BT-549 breast": {"system": "BT-549 breast"}, "MDA-MB-435 melanoma": {"system": "MDA-MB-435 melanoma"}, "UACC-257 melanoma": {"system": "UACC-257 melanoma"}, "OVCAR-3 ovarian": {"system": "OVCAR-3 ovarian"}, "RPMI-8226 leukemia": {"system": "RPMI-8226 leukemia"}, "LOX IMVI melanoma": {"system": "LOX IMVI melanoma"}, "NCI-H226 lung": {"system": "NCI-H226 lung"}, "KM12 colon": {"system": "KM12 colon"}, "HOP-92 NSCLC": {"system": "HOP-92 NSCLC"}, "M14 melanoma": {"system": "M14 melanoma"}, "SK-MEL-2 melanoma": {"system": "SK-MEL-2 melanoma"}, "CAKI-1 renal": {"system": "CAKI-1 renal"}, "U251 glioblastoma": {"system": "U251 glioblastoma"}, "SF-268 CNS": {"system": "SF-268 CNS"}, "MALME-3M melanoma": {"system": "MALME-3M melanoma"}, "NCI-H23 lung": {"system": "NCI-H23 lung"}, "SW-620 colon": {"system": "SW-620 colon"}, "IGROV1 ovarian": {"system": "IGROV1 ovarian"}, "A498 renal": {"system": "A498 renal"}, "NCI-H522 lung": {"system": "NCI-H522 lung"}, "NCI-H322M lung": {"system": "NCI-H322M lung"}, "HL-60(TB) leukemia": {"system": "HL-60(TB) leukemia"}, "HCT-15 colon": {"system": "HCT-15 colon"}, "SK-MEL-5 melanoma": {"system": "SK-MEL-5 melanoma"}, "OVCAR-5 ovarian": {"system": "OVCAR-5 ovarian"}, "A549 NSCLC": {"system": "A549 NSCLC"}, "UACC-62 melanoma": {"system": "UACC-62 melanoma"}, "SF-539 CNS": {"system": "SF-539 CNS"}}, "note": "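GI50 = concentration required for 50% inhibition of growth. Definition used: TGI = concentration required for complete inhibition of growth.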", "data": [{"smiles": "C=Cc1c(C)c2cc3nc(cc4[nH]c(cc5nc(cc1[nH]2)C(C)=C5CCC(=O)O)c(CCC(=O)OC)c4C)[C@@]1(C)C3=CC=C(C(=O)OC)[C@H]1C(=O)OC", "values": [{"measurement": "GI50", "setting": "SN12C renal", "value": 2880, "unit": "nM"}, {"measurement": "TGI", "setting": "SN12C renal", "value": 9350, "unit": "nM"}, {"measurement": "GI50", "setting": "BT-549 breast", "value": 1320, "unit": "nM"}, {"measurement": "TGI", "setting": "BT-549 breast", "value": 3300, "unit": "nM"}, {"measurement": "GI50", "setting": "MDA-MB-435 melanoma", "value": 2360, "unit": "nM"}, {"measurement": "TGI", "setting": "MDA-MB-435 melanoma", "value": 5480, "unit": "nM"}, {"measurement": "GI50", "setting": "UACC-257 melanoma", "value": 1640, "unit": "nM"}, {"measurement": "TGI", "setting": "UACC-257 melanoma", "value": 3870, "unit": "nM"}, {"measurement": "GI50", "setting": "OVCAR-3 ovarian", "value": 1740, "unit": "nM"}, {"measurement": "TGI", "setting": "OVCAR-3 ovarian", "value": 3410, "unit": "nM"}, {"measurement": "GI50", "setting": "RPMI-8226 leukemia", "value": 1500, "unit": "nM"}, {"measurement": "TGI", "setting": "RPMI-8226 leukemia", "value": 2840, "unit": "nM"}, {"measurement": "GI50", "setting": "LOX IMVI melanoma", "value": 2640, "unit": "nM"}, {"measurement": "TGI", "setting": "LOX IMVI melanoma", "value": 4810, "unit": "nM"}, {"measurement": "GI50", "setting": "NCI-H226 lung", "value": 1480, "unit": "nM"}, {"measurement": "TGI", "setting": "NCI-H226 lung", "value": 3360, "unit": "nM"}, {"measurement": "GI50", "setting": "KM12 colon", "value": 1760, "unit": "nM"}, {"measurement": "TGI", "setting": "KM12 colon", "value": 3660, "unit": "nM"}, {"measurement": "GI50", "setting": "HOP-92 NSCLC", "value": 1920, "unit": "nM"}, {"measurement": "TGI", "setting": "HOP-92 NSCLC", "value": 4320, "unit": "nM"}, {"measurement": "GI50", "setting": "M14 melanoma", "value": 2280, "unit": "nM"}, {"measurement": "TGI", "setting": "M14 melanoma", "value": 5230, "unit": "nM"}, {"measurement": "GI50", "setting": "SK-MEL-2 melanoma", "value": 1640, "unit": "nM"}, {"measurement": "TGI", "setting": "SK-MEL-2 melanoma", "value": 3330, "unit": "nM"}, {"measurement": "GI50", "setting": "CAKI-1 renal", "value": 2850, "unit": "nM"}, {"measurement": "TGI", "setting": "CAKI-1 renal", "value": 7690, "unit": "nM"}, {"measurement": "GI50", "setting": "U251 glioblastoma", "value": 1610, "unit": "nM"}, {"measurement": "TGI", "setting": "U251 glioblastoma", "value": 3970, "unit": "nM"}, {"measurement": "GI50", "setting": "SF-268 CNS", "value": 1940, "unit": "nM"}, {"measurement": "TGI", "setting": "SF-268 CNS", "value": 5630, "unit": "nM"}, {"measurement": "GI50", "setting": "MALME-3M melanoma", "value": 1660, "unit": "nM"}, {"measurement": "TGI", "setting": "MALME-3M melanoma", "value": 3920, "unit": "nM"}, {"measurement": "GI50", "setting": "NCI-H23 lung", "value": 333, "unit": "nM"}, {"measurement": "TGI", "setting": "NCI-H23 lung", "value": 1280, "unit": "nM"}, {"measurement": "GI50", "setting": "SW-620 colon", "value": 3220, "unit": "nM"}, {"measurement": "TGI", "setting": "SW-620 colon", "value": 9290, "unit": "nM"}, {"measurement": "GI50", "setting": "IGROV1 ovarian", "value": 1930, "unit": "nM"}, {"measurement": "TGI", "setting": "IGROV1 ovarian", "value": 4730, "unit": "nM"}, {"measurement": "GI50", "setting": "A498 renal", "value": 1780, "unit": "nM"}, {"measurement": "TGI", "setting": "A498 renal", "value": 4060, "unit": "nM"}, {"measurement": "GI50", "setting": "NCI-H522 lung", "value": 1330, "unit": "nM"}, {"measurement": "TGI", "setting": "NCI-H522 lung", "value": 3660, "unit": "nM"}, {"measurement": "GI50", "setting": "NCI-H322M lung", "value": 1880, "unit": "nM"}, {"measurement": "TGI", "setting": "NCI-H322M lung", "value": 4540, "unit": "nM"}, {"measurement": "GI50", "setting": "HL-60(TB) leukemia", "value": 1870, "unit": "nM"}, {"measurement": "TGI", "setting": "HL-60(TB) leukemia", "value": 3290, "unit": "nM"}, {"measurement": "GI50", "setting": "HCT-15 colon", "value": 1730, "unit": "nM"}, {"measurement": "TGI", "setting": "HCT-15 colon", "value": 3320, "unit": "nM"}, {"measurement": "GI50", "setting": "SK-MEL-5 melanoma", "value": 1300, "unit": "nM"}, {"measurement": "TGI", "setting": "SK-MEL-5 melanoma", "value": 2680, "unit": "nM"}, {"measurement": "GI50", "setting": "OVCAR-5 ovarian", "value": 2490, "unit": "nM"}, {"measurement": "TGI", "setting": "OVCAR-5 ovarian", "value": 5930, "unit": "nM"}, {"measurement": "GI50", "setting": "A549 NSCLC", "value": 1650, "unit": "nM"}, {"measurement": "TGI", "setting": "A549 NSCLC", "value": 4090, "unit": "nM"}, {"measurement": "GI50", "setting": "UACC-62 melanoma", "value": 1880, "unit": "nM"}, {"measurement": "TGI", "setting": "UACC-62 melanoma", "value": 3630, "unit": "nM"}, {"measurement": "GI50", "setting": "SF-539 CNS", "value": 1650, "unit": "nM"}]}]}
